Test results reported in ChEMBL document CHEMBL1201862, “PubChem BioAssay data set” (2004).
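Tested at 5 concentrations; 48 h exposure; 96-well plates; endpoints linearly interpolated, else capped at highest concentration. At the GI50, growth is halved.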 Active and inactive are the calls of the source. Rule as the data show it: active = GI50 up to about 1.1 µM and inactive = higher.

Columns and labels:
Test in all cases: NCI-60 cell line screen, 48 h
MDA-N = test system: MDA-N
SK-MEL-2 = test system: SK-MEL-2
A549 = test system: A549
NCI/ADR-RES = test system: NCI/ADR-RES
SF-539 = test system: SF-539
NCI-H460 = test system: NCI-H460
CAKI-1 = test system: CAKI-1
UACC-257 = test system: UACC-257
EKVX = test system: EKVX
PC-3 = test system: PC-3
MDA-MB-231 = test system: MDA-MB-231
UACC-62 = test system: UACC-62
SN12C = test system: SN12C
HCT-116 = test system: HCT-116
SF-295 = test system: SF-295
Malme-3M = test system: Malme-3M
Hs-578T = test system: Hs-578T
NCI-H226 = test system: NCI-H226
NCI-H522 = test system: NCI-H522
SF-268 = test system: SF-268
MDA-MB-435 = test system: MDA-MB-435
HL-60 = test system: HL-60
UO-31 = test system: UO-31
MCF7 = test system: MCF7
HCC 2998 = test system: HCC 2998
RPMI-8226 = test system: RPMI-8226
U-251 = test system: U-251
M14 = test system: M14
SK-MEL-5 = test system: SK-MEL-5
KM12 = test system: KM12
SK-OV-3 = test system: SK-OV-3
A498 = test system: A498
OVCAR-3 = test system: OVCAR-3
786-0 = test system: 786-0
SNB-19 = test system: SNB-19
HOP-62 = test system: HOP-62
K562 = test system: K562
BT-549 = test system: BT-549
SK-MEL-28 = test system: SK-MEL-28
LOX IMVI = test system: LOX IMVI
SNB-75 = test system: SNB-75
COLO 205 = test system: COLO 205
MOLT-4 = test system: MOLT-4
DU-145 = test system: DU-145
OVCAR-5 = test system: OVCAR-5
TK-10 = test system: TK-10
ACHN = test system: ACHN
IGROV-1 = test system: IGROV-1
RXF 393 = test system: RXF 393
HCT-15 = test system: HCT-15
OVCAR-8 = test system: OVCAR-8
OVCAR-4 = test system: OVCAR-4
SW-620 = test system: SW-620
CCRF-CEM = test system: CCRF-CEM
T47D = test system: T47D
NCI-H23 = test system: NCI-H23
HOP-92 = test system: HOP-92
HT-29 = test system: HT-29

For `COc1ccc(/C=C/c2ccnc3ccccc23)c(OC)c1`, the GI50 (MDA-N) was 3.41 µM (inactive), the GI50 (SK-MEL-2) was 8.51 µM (inactive) and the GI50 (A549) was > 10 µM (inactive). For the same compound, the GI50 (NCI/ADR-RES) was 3.86 µM (inactive), the GI50 (SF-539) was 4.34 µM (inactive) and the GI50 (NCI-H460) was 6.05 µM (inactive). The GI50 (CAKI-1) was > 10 µM (inactive), the GI50 (UACC-257) was > 10 µM (inactive) and the GI50 (EKVX) was 5.19 µM (inactive). The GI50 (PC-3) was 8.38 µM (inactive), the GI50 (MDA-MB-231) was 4.17 µM (inactive) and the GI50 (UACC-62) was 5.16 µM (inactive). For the same compound, the GI50 (SN12C) was > 10 µM (inactive), the GI50 (HCT-116) was 3.56 µM (inactive) and the GI50 (SF-295) was 6.18 µM (inactive). For the same compound, the GI50 (Malme-3M) was 5.69 µM (inactive), the GI50 (Hs-578T) was 5.98 µM (inactive) and the GI50 (NCI-H226) was 4.51 µM (inactive). The GI50 (NCI-H522) was 6.62 µM (inactive), the GI50 (SF-268) was > 10 µM (inactive) and the GI50 (MDA-MB-435) was 2.36 µM (inactive). The GI50 (HL-60) was 3.61 µM (inactive), the GI50 (UO-31) was > 10 µM (inactive) and the GI50 (MCF7) was 3.07 µM (inactive). For the same compound, the GI50 (HCC 2998) was 6.82 µM (inactive), the GI50 (RPMI-8226) was 7.33 µM (inactive) and the GI50 (U-251) was 9.02 µM (inactive). The GI50 (M14) was > 10 µM (inactive), the GI50 (SK-MEL-5) was 3.66 µM (inactive) and the GI50 (KM12) was 6 µM (inactive). For the same compound, the GI50 (SK-OV-3) was > 10 µM (inactive), the GI50 (A498) was 7.87 µM (inactive) and the GI50 (OVCAR-3) was > 10 µM (inactive). The GI50 (786-0) was 9.25 µM (inactive), the GI50 (SNB-19) was > 10 µM (inactive) and the GI50 (HOP-62) was > 10 µM (inactive). For the same compound, the GI50 (K562) was 3.54 µM (inactive), the GI50 (BT-549) was 7.18 µM (inactive) and the GI50 (SK-MEL-28) was > 10 µM (inactive). The GI50 (LOX IMVI) was 7.71 µM (inactive), the GI50 (SNB-75) was 4.23 µM (inactive) and the GI50 (COLO 205) was 4.34 µM (inactive). The GI50 (MOLT-4) was 4.54 µM (inactive), the GI50 (DU-145) was > 10 µM (inactive) and the GI50 (OVCAR-5) was > 10 µM (inactive). For the same compound, the GI50 (TK-10) was > 10 µM (inactive), the GI50 (ACHN) was 9.75 µM (inactive) and the GI50 (IGROV-1) was 7.87 µM (inactive). For the same compound, the GI50 (RXF 393) was > 10 µM (inactive), the GI50 (HCT-15) was 6.49 µM and the GI50 (OVCAR-8) was 7.52 µM (inactive). The GI50 (OVCAR-4) was > 10 µM (inactive), the GI50 (SW-620) was 5.94 µM (inactive) and the GI50 (CCRF-CEM) was 4.97 µM (inactive). For the same compound, the GI50 (T47D) was > 10 µM (inactive).

With `CCOC(=O)CCCNC(=O)CCCCC(=O)N(C)C` the GI50 (MDA-N) was > 100 µM (inactive), the GI50 (SK-MEL-2) was > 100 µM (inactive) and the GI50 (A549) was > 100 µM (inactive). The GI50 (NCI-H23) was > 100 µM (inactive), the GI50 (NCI/ADR-RES) was > 100 µM (inactive) and the GI50 (SF-539) was > 100 µM (inactive). For the same compound, the GI50 (NCI-H460) was > 100 µM (inactive), the GI50 (CAKI-1) was > 100 µM (inactive) and the GI50 (UACC-257) was > 100 µM (inactive). The GI50 (EKVX) was > 100 µM (inactive), the GI50 (PC-3) was > 100 µM (inactive) and the GI50 (MDA-MB-231) was > 100 µM (inactive). The GI50 (UACC-62) was > 100 µM (inactive), the GI50 (SN12C) was > 100 µM (inactive) and the GI50 (HCT-116) was > 100 µM (inactive). For the same compound, the GI50 (SF-295) was > 100 µM (inactive), the GI50 (Malme-3M) was > 100 µM (inactive) and the GI50 (Hs-578T) was > 100 µM (inactive). The GI50 (NCI-H226) was > 100 µM (inactive), the GI50 (NCI-H522) was > 100 µM (inactive) and the GI50 (SF-268) was > 100 µM (inactive). The GI50 (MDA-MB-435) was > 100 µM (inactive), the GI50 (HL-60) was > 100 µM (inactive) and the GI50 (UO-31) was > 100 µM (inactive). For the same compound, the GI50 (HOP-92) was > 100 µM (inactive), the GI50 (MCF7) was > 100 µM (inactive) and the GI50 (HCC 2998) was > 100 µM (inactive). The GI50 (RPMI-8226) was > 100 µM (inactive), the GI50 (U-251) was > 100 µM (inactive) and the GI50 (M14) was > 100 µM (inactive). For the same compound, the GI50 (SK-MEL-5) was > 100 µM (inactive), the GI50 (KM12) was > 100 µM (inactive) and the GI50 (SK-OV-3) was > 100 µM (inactive). The GI50 (A498) was > 100 µM (inactive), the GI50 (OVCAR-3) was > 100 µM (inactive) and the GI50 (786-0) was > 100 µM (inactive). The GI50 (SNB-19) was > 100 µM (inactive), the GI50 (HOP-62) was > 100 µM (inactive) and the GI50 (K562) was > 100 µM (inactive). For the same compound, the GI50 (BT-549) was > 100 µM (inactive), the GI50 (SK-MEL-28) was > 100 µM (inactive) and the GI50 (LOX IMVI) was > 100 µM (inactive). For the same compound, the GI50 (COLO 205) was > 100 µM (inactive), the GI50 (MOLT-4) was > 100 µM (inactive) and the GI50 (DU-145) was > 100 µM (inactive). The GI50 (HT-29) was > 100 µM (inactive), the GI50 (OVCAR-5) was > 100 µM (inactive) and the GI50 (TK-10) was > 100 µM (inactive). For the same compound, the GI50 (ACHN) was > 100 µM (inactive), the GI50 (IGROV-1) was > 100 µM (inactive) and the GI50 (HCT-15) was over 100 µM. The GI50 (OVCAR-8) was > 100 µM (inactive), the GI50 (SW-620) was > 100 µM (inactive) and the GI50 (CCRF-CEM) was > 100 µM (inactive). For the same compound, the GI50 (T47D) was > 100 µM (inactive).

With `CC1S/C(=N/c2nnc(-c3ccccc3)o2)NC1=O` (centres undefined) the GI50 (MDA-N) was 32.7 µM (inactive), the GI50 (SK-MEL-2) was 69.5 µM (inactive) and the GI50 (A549) was 37.6 µM (inactive). For the same compound, the GI50 (NCI-H23) was 94.8 µM (inactive), the GI50 (NCI/ADR-RES) was 36.6 µM (inactive) and the GI50 (SF-539) was 30.2 µM (inactive). For the same compound, the GI50 (CAKI-1) was > 100 µM (inactive), the GI50 (UACC-257) was 53.8 µM (inactive) and the GI50 (EKVX) was 27 µM (inactive). The GI50 (PC-3) was 38.5 µM (inactive), the GI50 (MDA-MB-231) was 43.3 µM (inactive) and the GI50 (UACC-62) was 52.6 µM (inactive). The GI50 (SN12C) was 36.1 µM (inactive), the GI50 (HCT-116) was 17.7 µM (inactive) and the GI50 (SF-295) was 18.3 µM (inactive). For the same compound, the GI50 (Malme-3M) was 41.4 µM (inactive), the GI50 (Hs-578T) was > 100 µM (inactive) and the GI50 (NCI-H226) was > 100 µM (inactive). The GI50 (NCI-H522) was 28 µM (inactive), the GI50 (SF-268) was 34.5 µM (inactive) and the GI50 (MDA-MB-435) was 39.1 µM (inactive). For the same compound, the GI50 (HL-60) was 36.7 µM (inactive), the GI50 (UO-31) was 30.2 µM (inactive) and the GI50 (HOP-92) was > 100 µM (inactive). The GI50 (MCF7) was 44 µM (inactive), the GI50 (RPMI-8226) was 49 µM (inactive) and the GI50 (U-251) was 26.6 µM (inactive). For the same compound, the GI50 (M14) was 21.5 µM (inactive), the GI50 (SK-MEL-5) was 35.9 µM (inactive) and the GI50 (KM12) was 46.1 µM (inactive). For the same compound, the GI50 (A498) was > 100 µM (inactive), the GI50 (OVCAR-3) was 18.5 µM (inactive) and the GI50 (786-0) was 28.3 µM (inactive). The GI50 (SNB-19) was 55.6 µM (inactive), the GI50 (HOP-62) was 26.7 µM (inactive) and the GI50 (K562) was 48 µM (inactive). The GI50 (BT-549) was 71.4 µM (inactive), the GI50 (SK-MEL-28) was 74.6 µM (inactive) and the GI50 (LOX IMVI) was 35.5 µM (inactive). For the same compound, the GI50 (COLO 205) was 47.1 µM (inactive), the GI50 (MOLT-4) was 30.5 µM (inactive) and the GI50 (DU-145) was 81.3 µM (inactive). For the same compound, the GI50 (HT-29) was 27.7 µM (inactive), the GI50 (OVCAR-5) was > 100 µM (inactive) and the GI50 (TK-10) was 58.7 µM (inactive). The GI50 (ACHN) was 46.5 µM (inactive), the GI50 (IGROV-1) was 43.9 µM (inactive) and the GI50 (RXF 393) was 61.7 µM (inactive). The GI50 (HCT-15) was 30.4 µM, the GI50 (OVCAR-8) was 43.6 µM (inactive) and the GI50 (OVCAR-4) was 31.2 µM (inactive). The GI50 (SW-620) was 46 µM (inactive), the GI50 (CCRF-CEM) was 14.5 µM (inactive) and the GI50 (T47D) was 61.1 µM (inactive).
